From publication PMC10552892, “Ebselen oxide and derivatives are new allosteric HER2 inhibitors for HER2‐positive cancers” (Molecular Oncology, 2023)

Tested on: BT474 cells implanted in the mammary fat pad
Experiment: Tumor growth in orthotopic BT474 xenograft in immunodeficient mice
Assay type: in vivo
Conditions: for Tumor size increase between day 19 and day 40: 5 days a week, vehicle 172%
Description: Experiments were done as already described on the TrGET platform of centre de Recherche de Cancérologie de Marseille (Institut Paoli Calmettes, Marseille, France) in accordance with the guidelines of the Institut National de la Santé et de la Recherche Médicale. The study was approved by the Animal Experimentation Ethics Committee of Marseille (APAFIS#2079‐2015092811101360 v3). Briefly, 7‐to‐8‐week‐old female NOD.Cg‐Prkdc scid/J (NSG) mice were purchased from Charles River France or bred in‐house and maintained on a 12‐h light and 12‐h dark cycle, under specific pathogen‐free conditions with sterilized food and water provided ad libitum. The initial body weight of the animals at the time of arrival was between 19 and 24 g. Mice were allowed to acclimatize to local conditions for 1 week before being injected with tumor cells. 5 × 10^6 BT474 cells resuspended in 100 μL (50% matrigel and 50% PBS) were implanted orthotopically in the mammary fat pad of NSG mice anesthetized with ketamine and xylazine and administered with the nonsteroidal anti‐inflammatory drug metacam (SC, 1 mg·kg^−1). Estradiol pellets were implanted subcutaneously. Metacam was administered 24 and 48 h postimplantation. Nineteen days after implantation, mice were randomized into […] to be administered intraperitoneally during 3 weeks with vehicle (10% DMSO in PBS, twice a day, 5 days a week, n = 8), 3 mg·kg^−1 ebselen oxide (twice a day, 5 days a week, n = 8), or […] ebselen oxide (twice a day, 5 days a week, n = 8). Mice weight and tumor volume were assessed 2–3 times a week using a caliper. At the end of the experiment, the collected tumors were photographed, weighed, and cut into halves to be embedded in OCT for immunohistofluorescence analysis or frozen in liquid nitrogen for western blot analysis.
The collected tumors embedded in OCT were cut into 5 μm thick sections and immobilized on superfrost™ plus microscope slides. Sections were fixed in 4% paraformaldehyde for 10 min at room temperature, washed three times in PBS, permeabilized for 10 min in PBS containing 0.1% Triton X100, washed with PBS, blocked for 30 min in PBS containing 3% BSA and incubated 1 h at room temperature with primary antibodies [Monoclonal anti‐HER2 (clone Cle2‐4001 and 3B5, IF‐1 : 100) or polyclonal anti‐KI67 (ref PA5‐16785, IF‐1 : 200)]. Sections were again washed three times in PBS and incubated 1 h at room temperature with fluorescence‐conjugated secondary antibodies from Jackson Immunoresearch Laboratories. After mounting, samples were scanned using a Lamina multilabel slide scanner (PerkinElmer). The proliferative index (mean percentage of Ki67‐positive nuclei) was quantified on 10 regions (area 0.2 mm^2) per slide (vehicle, n = 7; ebselen oxide n = 5) using IMAGEJ software.
We then explored the potential of ebselen oxide to reduce the growth of HER2‐overexpressing tumors in vivo. Nineteen days after orthotopic implantation of BT474 cells in the mammary fat pad of immunodeficient […] mice, mice received 3 or 5 mg·kg^−1 ebselen oxide, intraperitoneally (once or twice a day, as indicated, 5 days a week) or vehicle as a control. […] Conversely, in animals treated with 5 mg·kg^−1 ebselen oxide, it increased only by 44% in mice treated with 5 mg·kg^−1 ebselen oxide, corresponding to a significant growth inhibition index of 75% at day 40 (Fig. 5C–E). […] Of note, there was an excellent correlation between tumor volume and tumor weight (R ^2 = 0.9611, Fig. 5H). […] We next analyzed biochemically the intratumoral level of activated HER2 and downstream signaling in vehicle‐ and 5 mg·kg^−1 ebselen oxide‐treated mice.

SMILES: O=C1c2ccccc2[Se](=O)N1c1ccccc1 (stereo not drawn) [Ebselen oxide, ebselen oxide]
- Tumor size increase between day 19 and day 40 (3 mg·kg−1 i.p.): 112%
- Reduction in tumor size and weight compared to vehicle (3 mg·kg−1 i.p., day 40): only a little reduction
- Drop of tumor proliferation index (Ki67) vs vehicle (5 mg·kg−1, immunofluorescence on tumor sections): 32%
- Decrease of HER2 activation in tumor lysates vs vehicle (5 mg·kg−1, western blot): 30%
- Inhibition of Akt activation in tumor lysates (5 mg·kg−1, western blot): 50%
- Inhibition of ERK activation in tumor lysates (5 mg·kg−1, western blot): 45%
- Tumor size increase between day 19 and day 40 (5 mg·kg−1 i.p.): 44%
- Growth inhibition index (5 mg·kg−1 i.p., day 40): 75%
- Drop in tumor weight compared to vehicle-treated group (5 mg·kg−1 i.p., tumors collected at day 40): 40%
- Mice body weight after day 30 (3 and 5 mg·kg−1, recovered after reduction from two to one injection per day): decrease of mice body weight
- Tolerability (mice body weight) (3 and 5 mg·kg−1 i.p. twice a day): well‐tolerated until day 30
- Decrease in the mammary tumor volume (discussion) (mouse model, ebselen oxide administration): 40%
